For one test, the target named is BRD4 BD1 (Homo sapiens (Human), UniProt O60885). The experiment in a line: NanoBRET bromodomain assay, NanoLuc-BRD4-BD1 fusion in HEK293 cells. In kind it is cell-based. As to conditions: top concentration 10 μM. In general terms: In BRET a luciferase serves as donor, and the signal depends on an acceptor being close.
For another test, the target named is BRD4 BD2 (Homo sapiens (Human), UniProt O60885). The experiment in a line: NanoBRET bromodomain assay, NanoLuc-BRD4-BD2 fusion in HEK293 cells.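 For all read-outs here: tracer displacement BRET read in transfected cells after 2 h compound exposure at 37 °C, signal in milliBRET units corrected against no-tracer background wells.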 To be noted: for IC50: BRD4 BD2 (IC50), NanoBRET, HEK293 cells, top concentration 10 μM; for Fold selectivity: IC50 for BRD4 BD1 divided by IC50 for BRD4 BD2, qualitative if an IC50 is at the upper limit.

The term IC50 denotes the point on the concentration scale where inhibition reaches its midpoint. Read a low IC50 as greater potency. The term remaining activity denotes the signal under treatment as a percentage of the control signal.

SMILES strings stand for the structures.

Protocol for BRD4 BD2: HEK293 cells were transfected using NanoLuc-BRD4-BD1 or NanoLuc-BRD4-BD2 fusion vectors and incubated at 37° C. in an atmosphere of 5% CO2 for 20-24 hours. The transfected cells were then dispensed into 96-well plates using 90 μl cell suspension per well containing 2×10^5 cells/mL in Opti-MEM and 1× final concentration of tracer. 90 μL per well of cell suspension without tracer was also dispensed into at least 3 wells as “No tracer control samples” for background correction. Serially diluted test compounds were prepared at 1000× concentration in DMSO and further diluted to 10× concentration in Opti-MEM. […] Plates were then incubated at 37° C. +5% 002 incubator for 2 hours. […] Donor emission (450 nm) and acceptor emission (610 nm) were measured using PHERAstar (BMG LabTech). For data analysis, the raw BRET ratio was generated and converted to milliBRET units with background correction using the formula: [(Acceptorsample/Donorsample−(Acceptorno tracer control/Donorno tracer control)]×1000. The mBU data was plotted as a function of compound concentration and IC50s for BRET assay were determined by nonlinear regression analysis of concentration response curves using the Collaborative Drug Discovery Vault software. The fold-selectivity was calculated by dividing the IC50 for BRD4 BD1 by the IC50 for BRD4 BD2.

`CCNC(=O)c1cc(OC(COC)c2ccccc2)c(C(=O)NC)[nH]1` (racemic) [Example 10, N^5-ethyl-3-(2-methoxy-1-phenylethoxy)-N^2-methyl-1H-pyrrole-2,5-dicarboxamide] registered an IC50 against BRD4 BD1 of no less than 10 µM. On BRD4 BD2, the IC50 was greater than 10000 nM; the Fold selectivity result was “— (Fold ≥0 and ≤2)”.
For `CCNC(=O)c1cc(OC(C)c2ccccc2C#N)c(C(=O)NC)[nH]1` (racemic) [Example 11, 3-(1-(2-cyanophenyl)ethoxy)-N^5-ethyl-N^2-methyl-1H-pyrrole-2,5-dicarboxamide], the IC50 on BRD4 BD1 is no less than 10 µM. On BRD4 BD2, the IC50 was greater than 10000 nM; the Fold selectivity entry was “— (Fold ≥0 and ≤2)”.
Turning to `CCNC(=O)c1cc(OC(C)c2ccc(F)c(F)c2)c(C(=O)NC)[nH]1` (racemic) [Example 12, 3-(1-(3,4-difluorophenyl)ethoxy)-N5-ethyl-N2-methyl-1H-pyrrole-2,5-dicarboxamide], the IC50 against BRD4 BD1 was no less than 10 µM; against BRD4 BD2 it was 200 to 1000 nM. The Fold selectivity result at BRD4 BD2 was “X (Fold >2 and ≤50)”.
Turning to `CCNC(=O)c1cc(OC(C)c2cccc(F)c2F)c(C(=O)NC)[nH]1` (racemic) [Example 13, 3-(1-(2,3-difluorophenyl)ethoxy)-N^5-ethyl-N^2-methyl-1H-pyrrole-2,5-dicarboxamide], on BRD4 BD1, the IC50 is no less than 10 µM. For the same molecule, on BRD4 BD2, the IC50 lay in the range of 200 to 1000 nM; the Fold selectivity entry is “X (Fold >2 and ≤50)”.
Take `CCNC(=O)c1cc(OC(C)c2ccc(F)cc2F)c(C(=O)NC)[nH]1` (racemic) [Example 14, 3-(1-(2,4-difluorophenyl)ethoxy)-N^5-ethyl-N^2-methyl-1H-pyrrole-2,5-dicarboxamide]: the IC50 against BRD4 BD1 is no less than 10 µM. In addition, at BRD4 BD2, the half-inhibitory concentration (IC50) fell in the range of 200 to 1000 nM; the Fold selectivity result is “X (Fold >2 and ≤50)”.
Molecule `CCNC(=O)c1cc(OC(C)c2ccc3c(c2)COC3)c(C(=O)NC)[nH]1` (racemic) [Example 15, 3-(1-(1,3-dihydroisobenzofuran-5-yl)ethoxy)-M-ethyl-N^2-methyl-1H-pyrrole-2,5-dicarboxamide] came in with an IC50 against BRD4 BD1 of no less than 10 µM. Further, at BRD4 BD2, the IC50 was in the range of 200 to 1000 nM; the Fold selectivity entry was “X (Fold >2 and ≤50)”.
For the molecule `CCCC(Oc1cc(C(=O)NCC)[nH]c1C(=O)NC)c1ccccc1` (racemic) [Example 16, N^5-ethyl-N^2-methyl-3-(1-phenylbutoxy)-1H-pyrrole-2,5-dicarboxamide], the IC50 was no less than 10 µM against BRD4 BD1 and 200 to 1000 nM against BRD4 BD2. Also, the Fold selectivity result on BRD4 BD2 was “X (Fold >2 and ≤50)”.
`CCNC(=O)c1cc(OC(C)c2cccc(C)c2)c(C(=O)NC)[nH]1` (racemic) [Example 17, N^5-ethyl-N^2-methyl-3-(1-(m-tolyl)ethoxy)-1H-pyrrole-2,5-dicarboxamide] had an IC50 on BRD4 BD1 of no less than 10 µM. On BRD4 BD2, the IC50 fell in the range of 50 to 200 nM; the Fold selectivity entry was “XX (Fold >50 and ≤200)”.
`CCNC(=O)c1cc(OC(c2ccccc2)C2CC2)c(C(=O)NC)[nH]1` (racemic) [Example 63, 3-(cyclopropyl(phenyl)methoxy)-N^5-ethyl-N^2-methyl-1H-pyrrole-2,5-dicarboxamide]: the IC50 was no less than 10 µM at BRD4 BD1 and greater than 10000 nM against BRD4 BD2. Further, the Fold selectivity entry on BRD4 BD2 was “— (Fold ≥0 and ≤2)”.
On BRD4 BD1, `CCNC(=O)c1cc(OC(CO)c2ccccc2)c(C(=O)NC)[nH]1` (racemic) [Example 73, N^5-ethyl-3-(2-hydroxy-1-phenylethoxy)-N^2-methyl-1H-pyrrole-2,5-dicarboxamide] gave an IC50 of no less than 10 µM. For the same molecule, on BRD4 BD2, the IC50 is 1000 to 10000 nM; the Fold selectivity result was “X (Fold >2 and ≤50)”.
On to `CCNC(=O)c1cc(OC(c2ccccc2)C(C)C)c(C(=O)NC)[nH]1` (racemic) [Example 77, N^5-ethyl-N^2-methyl-3-(2-methyl-1-phenylpropoxy)-1H-pyrrole-2,5-dicarboxamide], for which the IC50 against BRD4 BD1 is no less than 10 µM. On BRD4 BD2, the half-inhibitory concentration (IC50) was greater than 10000 nM; the Fold selectivity result is “— (Fold ≥0 and ≤2)”.
For `CCNC(=O)c1cc(OC(C)c2ccccn2)c(C(=O)NC)[nH]1` (racemic) [Example 96, N^5-ethyl-N^2-methyl-3-(1-(pyridin-2-yl)ethoxy)-1H-pyrrole-2,5-dicarboxamide], the half-maximal inhibitory concentration (IC50) against BRD4 BD1 is no less than 10 µM; on BRD4 BD2, 200 to 1000 nM. Also, the remaining activity at 10 µM at BRD4 BD2 (HEK293, read-out: BRD4 BD2 % Activity Remaining @ 10 uM, 10 uM, (2) = second batch) came out at 30%. The Fold selectivity result on BRD4 BD2 was “X (Fold >2 and ≤50)”.
Consider `CCNC(=O)c1cc(OC(C)c2ccc(Cl)cc2)c(C(=O)NC)[nH]1` (racemic) [Example 122, 3-(1-(4-chlorophenyl)ethoxy)-N^5-ethyl-N^2-methyl-1H-pyrrole-2,5-dicarboxamide], for which the IC50 against BRD4 BD1 was no less than 10 µM; against BRD4 BD2, 50 to 200 nM. Moreover, at BRD4 BD2, the Fold selectivity result was “XX (Fold >50 and ≤200)”.
Turning to `CCNC(=O)c1cc(OC(C)c2cccc(F)c2)c(C(=O)NC)[nH]1` (racemic) [Example 123, N^5-ethyl-3-(1-(3-fluorophenyl)ethoxy)-N^2-methyl-1H-pyrrole-2,5-dicarboxamide], the results for the IC50 at BRD4 BD1 and at BRD4 BD2 were no less than 10 µM and 200 to 1000 nM, respectively. Besides, the Fold selectivity entry on BRD4 BD2 was “X (Fold >2 and ≤50)”.
`CCNC(=O)c1cc(OC(C)c2ccccc2F)c(C(=O)NC)[nH]1` (racemic) [Example 124, N^5-ethyl-3-(1-(2-fluorophenyl)ethoxy)-N^2-methyl-1H-pyrrole-2,5-dicarboxamide] showed an IC50 at BRD4 BD1 of no less than 10 µM. Moreover, on BRD4 BD2, the IC50 lay within 50 to 200 nM; the Fold selectivity result is “XX (Fold >50 and ≤200)”.
Molecule `CCNC(=O)c1cc(OC(C)c2cccc(C(F)(F)F)c2)c(C(=O)NC)[nH]1` (racemic) [Example 125, N^5-ethyl-N^2-methyl-3-(1-(3-(trifluoromethyl)phenyl)ethoxy)-1H-pyrrole-2,5-dicarboxamide] showed an IC50 against BRD4 BD1 of no less than 10 µM. Also, at BRD4 BD2, the IC50 lay within 200 to 1000 nM; the Fold selectivity entry is “X (Fold >2 and ≤50)”.
Regarding `CCNC(=O)c1cc(OC(CC)c2ccccc2)c(C(=O)NC)[nH]1` (racemic) [Example 126, N^5-ethyl-N^2-methyl-3-(1-phenylpropoxy)-1H-pyrrole-2,5-dicarboxamide], the IC50 against BRD4 BD1 was no less than 10 µM; on BRD4 BD2 it was 200 to 1000 nM. Moreover, at BRD4 BD2, the Fold selectivity result was “X (Fold >2 and ≤50)”.
As for `CCNC(=O)c1cc(OC(C)c2ccc(F)cc2)c(C(=O)NC)[nH]1` (racemic) [Example 127, N^5-ethyl-3-(1-(4-fluorophenyl)ethoxy)-N^2-methyl-1H-pyrrole-2,5-dicarboxamide], the IC50 at BRD4 BD1 is no less than 10 µM. At BRD4 BD2, the IC50 lay in the range of 50 to 200 nM; the Fold selectivity result was “XX (Fold >50 and ≤200)”.
In turn, `CCNC(=O)c1cc(OC(C)c2ccc(Cl)cc2)c(C(=O)NC)[nH]1` (single isomer, unassigned) [Example 19, 3-(1-(4-chlorophenyl)ethoxy)-N^5-ethyl-N^2-methyl-1H-pyrrole-2,5-dicarboxamide] showed an IC50 against BRD4 BD1 of no less than 10 µM. At BRD4 BD2, the IC50 was greater than 10000 nM; the Fold selectivity result was “— (Fold ≥0 and ≤2)”.
`CCNC(=O)c1cc(OC(C)c2ccccc2F)c(C(=O)NC)[nH]1` (single isomer, unassigned) [Example 21, N^5-ethyl-3-(1-(2-fluorophenyl)ethoxy)-N^2-methyl-1H-pyrrole-2,5-dicarboxamide]: the IC50 at BRD4 BD1 was no less than 10 µM; against BRD4 BD2, greater than 10000 nM. In addition, on BRD4 BD2, the Fold selectivity entry was “— (Fold ≥0 and ≤2)”.
Regarding `CCNC(=O)c1cc(OC(C)c2ccc(C)cc2)c(C(=O)NC)[nH]1` (single isomer, unassigned) [Example 25, N^5-ethyl-N^2-methyl-3-(1-(p-tolyl)ethoxy)-1H-pyrrole-2,5-dicarboxamide], the IC50 against BRD4 BD1 is no less than 10 µM; against BRD4 BD2 it was less than 50 nM. For the same molecule, the Fold selectivity result on BRD4 BD2 is listed as “XXX (Fold >200)”.
Turning to `CCNC(=O)c1cc(OC(C)c2ccc(C)cc2)c(C(=O)NC)[nH]1` (single isomer, unassigned) [Example 26, N^5-ethyl-N^2-methyl-3-(1-(p-tolyl)ethoxy)-1H-pyrrole-2,5-dicarboxamide], the IC50 at BRD4 BD1 is no less than 10 µM. In addition, at BRD4 BD2, the IC50 is greater than 10000 nM; the Fold selectivity entry was “— (Fold ≥0 and ≤2)”.
As to `CNC(=O)c1[nH]c(C(=O)N[C@H]2CC[C@H](O)CC2)cc1OC(C)c1ccc(Cl)cc1F` (single isomer, unassigned) [Example 37, 3-(1-(4-chloro-2-fluorophenyl)ethoxy)-N^5-(trans-4-hydroxycyclohexyl)-N^2-methyl-1H-pyrrole-2,5-dicarboxamide], at BRD4 BD1, the half-inhibitory concentration (IC50) was no less than 10 µM. At BRD4 BD2, the IC50 lay within 1000 to 10000 nM; the Fold selectivity result is “— (Fold ≥0 and ≤2)”.
For `CCNC(=O)c1cc(OC(C)c2ccc(Cl)cc2F)c(C(=O)NC)[nH]1` (single isomer, unassigned) [Example 42, 3-(1-(4-chloro-2-fluorophenyl)ethoxy)-N^5-ethyl-N^2-methyl-1H-pyrrole-2,5-dicarboxamide], the IC50 on BRD4 BD1 was no less than 10 µM. Further, at BRD4 BD2, the IC50 is greater than 10000 nM; the Fold selectivity entry was “— (Fold ≥0 and ≤2)”.
As to `CCNC(=O)c1cc(OC(C)c2ccc(Br)cc2)c(C(=O)NC)[nH]1` (single isomer, unassigned) [Example 50, 3-(1-(4-bromophenyl)ethoxy)-N^5-ethyl-N^2-methyl-1H-pyrrole-2,5-dicarboxamide], the IC50 against BRD4 BD1 was no less than 10 µM. At BRD4 BD2, the IC50 is greater than 10000 nM; the Fold selectivity result is “— (Fold ≥0 and ≤2)”.
As for `CCNC(=O)c1cc(OC(C)c2ccc(I)cc2)c(C(=O)NC)[nH]1` (single isomer, unassigned) [Example 52, N^5-ethyl-3-(1-(4-iodophenyl)ethoxy)-N^2-methyl-1H-pyrrole-2,5-dicarboxamide], the IC50 against BRD4 BD1 is no less than 10 µM. Further, at BRD4 BD2, the IC50 is greater than 10000 nM; the Fold selectivity entry was “— (Fold ≥0 and ≤2)”.

Source of the values: patent US20250263370A1 (Tay Therapeutics Limited, priority 2022, published 2025).
